Our source for the Kd and maximal cAMP-induced dissociation of the holoenzyme (%) values is publication PMC13080237, “Functional divergence of protein kinase A regulatory subunit Iβ variants: the importance of N3A motifs in PKA regulation” (The Febs Journal, 2025).

For experiment [1], the target named is T1, RIβ (RIβ A268; His-RIβ) (Homo sapiens, UniProt P31321).
T1 construct: gene PRKAR1B; full-length, N-terminal His-tag (pQTEV vector), E. coli TP2000 cells, Ni-NTA; dimer; 380 residues as printed
Kind of experiment: fluorescence polarization, direct titration. Conditions: labelled compound; 0.5 nM 8-Fluo-cAMP, RIβ dilution series; 20 mM MOPS pH 7.4, 150 mM NaCl, room temperature; read-out: affinity. The experiment is classed as binding.

In experiment [2] the target is T2, RIβ (RIβ A268; His-RIβ) (Homo sapiens, UniProt P31321, A268R).
T2 construct: gene PRKAR1B; full-length, N-terminal His-tag (pQTEV vector), E. coli TP2000 cells, Ni-NTA; dimer; 380 residues as printed
Kind of experiment: fluorescence polarization, direct titration. As to conditions: labelled compound; 0.5 nM 8-Fluo-cAMP, RIβ R268 dilution series; 20 mM MOPS pH 7.4, 150 mM NaCl, room temperature; residue 268 in bovine RIα numbering (270 in human RIβ); read-out: affinity. In kind it is binding.

In experiment [3] the target is GFP2 fusion of human PKA Cα (BRET acceptor) (human) (UniProt P17612). Kind of experiment: FRET or BRET; BRET2 in living HEK293 cells; RLuc8 fused to the R subunit, GFP2 fused to the C subunit; 37 °C, HBSS w/o Mg2+/Ca2+ pH 7.4, coelenterazine 400a; time courses and end points (20 min); cells treated with buffer, 100 nM isoproterenol, or 50 uM forskolin + 100 uM IBMX. (In general: In BRET a luciferase serves as donor, and the signal depends on an acceptor being close.)

T2 sequence (P31321 2-381 A268R): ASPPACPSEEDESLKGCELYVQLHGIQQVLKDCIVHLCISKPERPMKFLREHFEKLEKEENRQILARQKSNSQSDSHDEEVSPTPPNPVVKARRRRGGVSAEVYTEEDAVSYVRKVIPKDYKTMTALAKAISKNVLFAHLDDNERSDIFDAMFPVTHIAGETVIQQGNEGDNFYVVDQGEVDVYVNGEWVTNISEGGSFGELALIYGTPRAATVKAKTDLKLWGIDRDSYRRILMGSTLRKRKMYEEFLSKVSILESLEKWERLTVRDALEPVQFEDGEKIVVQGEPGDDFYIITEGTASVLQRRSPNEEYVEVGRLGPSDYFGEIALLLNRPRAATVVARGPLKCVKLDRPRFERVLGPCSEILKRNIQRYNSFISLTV
T1 sequence (P31321 2-381): as the sequence (P31321 2-381 A268R) above, with R267A counted along it

Consider “8‐(2‐[fluoresceinyl]aminoethylthio)‐cAMP [8-Fluo-cAMP]”, for which the Kd in experiment [1] and in experiment [2] was 4 nM each time.
For the substance “RLuc8 fusion of human RIβ R268 (BRET donor) (natural protein)”, the maximal cAMP-induced dissociation of the holoenzyme (%) in experiment [3] turned out to be 30%.
